Literature values, collected in patent publication US4410715A, “Process for the epoxidation of olefins using a group V metal co-catalyst I and a phenolic hydrocarbon co-catalyst II” (Exxon Research & Engineering Co., priority 1982, dated 1983).

Conditions: aqueous solution at 25° C.
In the case of Cc1ccc(O)cc1 [p-cresol], the pKa is given as 10.2. In the case of Oc1ccc(Cl)cc1Cl [2,4-DCP, 2,4-dichlorophenol], the pKa is listed as 7.7. For Oc1c(Cl)cccc1Cl [2,6-DCP, 2,6-dichlorophenol], the pKa is listed as 6.8. For CC(C)(C)c1ccc(O)c(C(C)(C)C)c1 [2,4-di-t-butyl phenol], the pKa is listed as 11.6. For Oc1ccc(Cl)cc1 [p-chlorophenol], the pKa is listed as 9.2. In the case of COc1ccccc1O [2-methoxy-phenol, 2-methoxyphenol], the pKa is listed as 10.0. In the case of Oc1cccc(Cl)c1 [m-chlorophenol], the pKa is listed as 8.8. For Oc1ccccc1Cl [o-chlorophenol], the pKa is listed as 8.5.

Same assay, conditions: in place of a pKa value
For C1COCCO1 [1,4-dioxane, reference compound], the “basicity (footnote to pKa column, in words)” value is given as “basic”.
